Source: article PMC8776995 (Frontiers in Chemistry, 2022)
Values joined by “and” are separate entries in the source; they are usually repeats but may differ in a detail not shown here. Equal entries are not always repeated.

Tests used:
PC-9 cells [1] = assay: Annexin V/PI flow cytometry for cell apoptosis, PC-9; assay type: cell-based, human; set-up: key to Apoptosis (sum of Q2 and Q3) / Apoptosis, Average: % apoptotic cells (Annexin V/PI flow cytometry); conditions: for Apoptosis, Average / Apoptosis (sum of Q2 and Q3) / Lymphocytes/Q2: FITC-A+ , PI-A+ Freq. of Parent / Lymphocytes/Q3: FITC-A+ , PI-A- Freq. of Parent: PC-9, 48h; for Apoptosis, Average: average of three repeats; for Apoptosis (sum of Q2 and Q3): single repeats (Repeat 1-3); for Lymphocytes/Q2: FITC-A+ , PI-A+ Freq. of Parent / Lymphocytes/Q3: FITC-A+ , PI-A- Freq. of Parent: single runs
Description: To establish whether the antiproliferative efficacy is associated with apoptosis, PC-9 and H460 cells were treated with compound e4 or e12 of various concentrations (4, 8 and 12 μM) for 48 h, and then assessed with flow cytometry.
Cell-apoptosis analysis was carried out by flow cytometry using the Annexin V/PI apoptosis kit according to the manufacturer’s manual. Briefly, PC-9 or H460 (3 × 10^4–5 × 10^4/well) cells were seeded in 12-well plates for 24 h, and then treated with 0.1% DMSO (as control) or various concentrations of compound e4 or e12 for 48 h, respectively. Cells were harvested, washed with PBS, and then incubated with 100ul of 1X Annexin V binding buffer containing 1 μl PI and 1 μl FITC Annexin V for 15 min at RT in the dark. 200 µl of 1X binding buffer were added to each tube for flow cytometry analysis (BD LSRFortessa™ Flow Cytometer). The percentages of apoptotic cells were analyzed using FlowJo soft.

PC-9 cells [2] = assay: Hoechst 33342 staining for cell apoptosis; assay type: cell-based, human; conditions: PC-9, various concentrations, 48 h, vs 0.1% DMSO
Description: To further verify the impact of compounds e4 and e12 on apoptosis of NSCLC cells, PC-9 cells were treated with either compound e4 or e12 at various concentrations for 48 h and then stained with dye Hoechst 33342.
PC-9 cells were seeded in 96-well plates, then treated with 0.1% DMSO (as control) or various concentrations of compound e4 or e12 for 48 h. Culture medium from the cells was removed and replaced with medium containing dye Hoechst 33342. Cells were incubated at 37°C for 5–15 min, washed with PBS twice, and then observed and imaged under the Nikon Ti-U microscope.

PC-9 cells [3] = assay: Flow cytometry detection for cell cycle, PC-9; assay type: cell-based, human; conditions: for G0/G1 / G2/M / S: single repeats (Repeat 1-3)
Description: To investigate the effects of compounds e4 and e12 on various phases of the cell cycle, PC-9 cells were treated with compound e4 or e12 of various concentrations for 24 h, and H460 cells were treated with compound e4 or e12 of various concentrations for 12 h.
PC-9 or H460 (2 × 10^5–3 × 10^5/well) cells were seeded in six-well plates for 24 h, and then treated with 0.1% DMSO (as control), various concentrations of either compound e4 or e12 for 24 h (PC-9) or 12 h (H460), respectively. The treated cells were harvested, washed with PBS, and then stained using the cell-cycle staining kit according to the manufacturer’s manual. The distribution of cell-cycle phases with different DNA contents was determined by flow cytometry (BD LSRFortessa™ Flow Cytometer) and analyzed using ModFit LT software.

wild-type EGFR = wild-type EGFR (Homo sapiens, UniProt P00533); assay: EGFR kinase assay (ELISA); conditions: for A450: raw ELISA absorbance
Chain of wild-type EGFR (P00533 25-1210): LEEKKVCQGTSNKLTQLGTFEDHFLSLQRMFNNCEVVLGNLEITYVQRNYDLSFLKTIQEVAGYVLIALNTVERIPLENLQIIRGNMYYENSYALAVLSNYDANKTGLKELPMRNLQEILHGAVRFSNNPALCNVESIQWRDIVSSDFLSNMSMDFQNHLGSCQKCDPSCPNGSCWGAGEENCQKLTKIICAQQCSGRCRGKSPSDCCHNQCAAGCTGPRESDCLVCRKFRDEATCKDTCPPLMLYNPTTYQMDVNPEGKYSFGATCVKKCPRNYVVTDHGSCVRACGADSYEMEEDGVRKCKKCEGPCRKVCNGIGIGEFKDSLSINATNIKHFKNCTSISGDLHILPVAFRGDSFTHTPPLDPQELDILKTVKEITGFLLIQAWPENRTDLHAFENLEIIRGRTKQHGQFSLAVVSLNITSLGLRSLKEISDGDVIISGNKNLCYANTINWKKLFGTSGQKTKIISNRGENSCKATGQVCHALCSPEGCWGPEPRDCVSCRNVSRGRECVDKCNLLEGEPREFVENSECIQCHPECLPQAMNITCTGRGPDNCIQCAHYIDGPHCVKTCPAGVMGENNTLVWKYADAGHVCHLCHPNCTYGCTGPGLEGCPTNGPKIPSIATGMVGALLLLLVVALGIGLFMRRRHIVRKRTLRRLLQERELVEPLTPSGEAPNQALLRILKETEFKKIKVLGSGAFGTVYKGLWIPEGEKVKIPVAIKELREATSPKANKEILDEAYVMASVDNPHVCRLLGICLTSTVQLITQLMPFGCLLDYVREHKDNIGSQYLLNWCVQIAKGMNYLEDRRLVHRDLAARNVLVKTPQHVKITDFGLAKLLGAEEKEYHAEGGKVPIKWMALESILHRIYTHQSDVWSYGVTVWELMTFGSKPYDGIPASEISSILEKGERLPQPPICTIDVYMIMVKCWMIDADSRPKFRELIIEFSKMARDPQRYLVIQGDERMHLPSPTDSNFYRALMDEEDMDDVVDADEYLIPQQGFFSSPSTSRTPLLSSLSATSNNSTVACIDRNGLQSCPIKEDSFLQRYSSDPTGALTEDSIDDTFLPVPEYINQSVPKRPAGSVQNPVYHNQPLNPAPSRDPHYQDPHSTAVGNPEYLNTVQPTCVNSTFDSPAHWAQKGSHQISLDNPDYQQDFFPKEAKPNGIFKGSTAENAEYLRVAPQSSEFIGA

[4] = tested on: AKT phosphorylation (S473) in H460 cells; assay: Western blot, p-AKT/AKT in H460; conditions: for p-AKT/AKT: band density ratio; for p-AKT/AKT relative to DMSO: ratio normalised to DMSO
Description: (§1) We also performed western blot analysis to evaluate the impact of e4 and e12 on EGFR signaling in PC-9 and H460 cells.
(§2) H460 cells were seeded in six-well plates with serum-free medium overnight, and then treated complete medium containing 0.1% DMSO, various concentrations (0.1, 1 and 10 μM) of either compound e4 or e12 for 2 h, respectively. […] Then the H460 cells were treated with complete medium containing EGF (10 ng/ml) for 5 min. Then the cells were harvested and washed with PBS, centrifuged, resuspended in 100–200 μl of RIPA lysis buffer containing Protease and Phosphatase Inhibitor Cocktail (1X), and then centrifuged for 5 min at 12,000 rpm at 4°C. The supernatant was used for protein analysis. […] Then the membrane was washed 5 min (X3) and incubated at 1:3,000 dilution of anti-rabbit secondary antibodies or 1:1,000 dilution of anti-mouse secondary antibodies for 1 h at RT. After washing with TBST 5 min (X3), protein bands were developed by chemiluminescence. The protein levels were quantified by the gray values of the bands in the resulting images by ImageJ, and the control group was used as the standard. […] The PC-9 cells were harvested and analyzed as above.

[5] = tested on: AKT phosphorylation (S473) in PC-9 cells; assay: Western blot, p-AKT/AKT in PC-9; conditions: for p-AKT/AKT: band density ratio; for p-AKT/AKT relative to DMSO: ratio normalised to DMSO = 1
Description: as §1, §2

[6] = tested on: EGFR phosphorylation (Tyr1068) in PC-9 cells; assay: Western blot, p-EGFR/EGFR in PC-9; conditions: for p-EGFR/EGFR: band density ratio; for p-EGFR/EGFR relative to DMSO: ratio normalised to DMSO = 1
Description: as §1, §2

PC-9 cells [7] = assay: CCK-8 antiproliferation assay, PC-9; conditions: for Inhibitory efficacy: single repeats (Repeat 1-3), given as fraction

`COCCOc1cc2ncnc(Nc3cccc(-c4cn(-c5ccc(C)cc5)nn4)c3)c2cc1OCCOC` [e12, [6,7-Bis-(2-methoxy-ethoxy)-quinazolin-4-yl]-[3-(1-p-tolyl-1H-[1,2,3]triazol-4-yl)-phenyl]-amine] was tested, and the “cell apoptosis (flow cytometry)” value (PC-9 cells [1]; PC-9, 4, 8 and 12 μM, 48 h) was “significant cell apoptosis”, the “Apoptosis, Average” value (PC-9 cells [1]; 4uM) was 13.94 and the “Apoptosis (sum of Q2 and Q3)” value (PC-9 cells [1]; 4uM) was 15.01 and 16.36 and 10.45. For the same compound, the “Lymphocytes/Q2: FITC-A+ , PI-A+ Freq. of Parent” value (“Lymphocytes/Q2: FITC-A+ ” below) (PC-9 cells [1]; 4uM) was 14.50% and 15.4% and 9.81%, the “Lymphocytes/Q3: FITC-A+ , PI-A- Freq. of Parent” value (from here on “Lymphocytes/Q3: FITC-A+ ”) (PC-9 cells [1]; 4uM) was 0.51% and 0.96% and 0.64% and the “Apoptosis, Average” value (PC-9 cells [1]; 8uM) was 12.92. For the same compound, the “Apoptosis (sum of Q2 and Q3)” value (PC-9 cells [1]; 8uM) was 13.98 and 12.64 and 12.13, the “Lymphocytes/Q2: FITC-A+ ” value (PC-9 cells [1]; 8uM) was 12.60% and 10.6% and 10.7% and the “Lymphocytes/Q3: FITC-A+ ” value (PC-9 cells [1]; 8uM) was 1.38% and 2.04% and 1.43%. For the same compound, the “Apoptosis, Average” value (PC-9 cells [1]; 12uM) was 29.21, the “Apoptosis (sum of Q2 and Q3)” value (PC-9 cells [1]; 12uM) was 24.77 and 29.39 and 33.48 and the “Lymphocytes/Q2: FITC-A+ ” value (PC-9 cells [1]; 12uM) was 20.50% and 25.9% and 29.5%. The “Lymphocytes/Q3: FITC-A+ ” value (PC-9 cells [1]; 12uM) was 4.27% and 3.49% and 3.98%, the “apoptotic morphology, Hoechst 33342 staining” value (PC-9 cells [2]) was “exhibited features typical of apoptosis” and the G0/G1 (PC-9 cells [3]; PC-9, 4uM) was 56.16 and 54.85 and 57.63. For the same compound, the G2/M (PC-9 cells [3]; PC-9, 4uM) was 17.84 and 17.98 and 15.19, the S (PC-9 cells [3]; PC-9, 4uM) was 26.01 and 27.17 and 27.19 and the G0/G1 (PC-9 cells [3]; PC-9, 8uM) was 53.08 and 54.06 and 56.12. For the same compound, the G2/M (PC-9 cells [3]; PC-9, 8uM) was 20.06 and 19.34 and 16.67, the S (PC-9 cells [3]; PC-9, 8uM) was 26.86 and 26.6 and 27.1 and the G0/G1 (PC-9 cells [3]; PC-9, 12uM) was 56.88 and 57.79 and 60.22. The G2/M (PC-9 cells [3]; PC-9, 12uM) was 21.27 and 20.78 and 17.44, the S (PC-9 cells [3]; PC-9, 12uM) was 21.85 and 21.43 and 22.34 and the “percentage of cells in the G0/G1 phase” value (PC-9 cells [3]; PC-9, various concentrations, 24 h) was “induced higher percentages”. The IC50 (wild-type EGFR; IC50 (μM) EGFR, ELISA, 3 μmol/L ATP) was 1.76 µM, the inhibition at 100 fM (wild-type EGFR; concentration 0.0001 nM (reference for normalisation), one value per replicate column) was 0% and the inhibition at 30 pM (wild-type EGFR; concentration 0.03 nM, one value per replicate column) was 8.63%. It also gave an Inhibition (wild-type EGFR; concentration 0.03 nM, one value per replicate column, 3e-05 µM) of 6.151, an inhibition at 0.0003 µM (wild-type EGFR; concentration 0.3 nM, one value per replicate column) of 9.04% and an Inhibition (wild-type EGFR; concentration 0.3 nM, one value per replicate column, 0.0003 µM) of 14.0873. For the same compound, the inhibition at 0.003 µM (wild-type EGFR; concentration 3 nM, one value per replicate column) was 9.24%, the Inhibition (wild-type EGFR; concentration 3 nM, one value per replicate column, 0.003 µM) was 16.0714 and the inhibition at 0.03 µM (wild-type EGFR; concentration 30 nM, one value per replicate column) was 16.1%. For the same compound, the Inhibition (wild-type EGFR; concentration 30 nM, one value per replicate column, 0.03 µM) was 18.4524, the inhibition at 0.3 µM (wild-type EGFR; concentration 300 nM, one value per replicate column) was 20.3% and the Inhibition (wild-type EGFR; concentration 300 nM, one value per replicate column, 0.3 µM) was 32.1429. It also gave an inhibition at 3 µM (wild-type EGFR; concentration 3000 nM, one value per replicate column) of 50.8%, an Inhibition (wild-type EGFR; concentration 3000 nM, one value per replicate column, 3 µM) of 50.5952 and an inhibition at 30 µM (wild-type EGFR; concentration 30000 nM, one value per replicate column) of 85.5%. For the same compound, the Inhibition (wild-type EGFR; concentration 30000 nM, one value per replicate column, 30 µM) was 85.9127, the A450 (wild-type EGFR; concentration 0.0001 nM) was 0.655 and 0.663 and the A450 (wild-type EGFR; concentration 0.03 nM) was 0.612 and 0.632. For the same compound, the A450 (wild-type EGFR; concentration 0.3 nM) was 0.61 and 0.592, the A450 (wild-type EGFR; concentration 3 nM) was 0.609 and 0.582 and the A450 (wild-type EGFR; concentration 30 nM) was 0.575 and 0.57. The A450 (wild-type EGFR; concentration 300 nM) was 0.554 and 0.501, the A450 (wild-type EGFR; concentration 3000 nM) was 0.402 and 0.408 and the A450 (wild-type EGFR; concentration 30000 nM) was 0.229 and 0.23. For the same compound, the p-AKT/AKT ([4]; H460, 0.1 uM) was 1.267, the “p-AKT/AKT relative to DMSO” value ([4]; H460, 0.1 uM) was 1.274 and the p-AKT/AKT ([4]; H460, 1 uM) was 0.9055. The “p-AKT/AKT relative to DMSO” value ([4]; H460, 1 uM) was 0.9102, the p-AKT/AKT ([4]; H460, 10 uM) was 0.594 and the “p-AKT/AKT relative to DMSO” value ([4]; H460, 10 uM) was 0.5972. The “phosphorylation of AKT (western blot)” value ([4]; H460, especially at 10 μM) was “suppressed”, the p-AKT/AKT ([5]; PC-9, 0.1 uM) was 0.5916 and the “p-AKT/AKT relative to DMSO” value ([5]; PC-9, 0.1 uM) was 0.5679. The p-AKT/AKT ([5]; PC-9, 1 uM) was 0.4098, the “p-AKT/AKT relative to DMSO” value ([5]; PC-9, 1 uM) was 0.3934 and the p-AKT/AKT ([5]; PC-9, 10 uM) was 0.7398. The “p-AKT/AKT relative to DMSO” value ([5]; PC-9, 10 uM) was 0.7102, the “phosphorylation of AKT (western blot)” value ([5]; PC-9, especially at 10 μM) was “suppressed” and the p-EGFR/EGFR ([6]; PC-9, 0.1 uM) was 1.065. The “p-EGFR/EGFR relative to DMSO” value ([6]; PC-9, 0.1 uM) was 0.9518, the p-EGFR/EGFR ([6]; PC-9, 1 uM) was 0.9522 and the “p-EGFR/EGFR relative to DMSO” value ([6]; PC-9, 1 uM) was 0.8509. The p-EGFR/EGFR ([6]; PC-9, 10 uM) was 0.4177, the “p-EGFR/EGFR relative to DMSO” value ([6]; PC-9, 10 uM) was 0.3732 and the “phosphorylation of EGFR (western blot)” value ([6]; PC-9, especially at 10 μM) was “suppressed”. It also gave an IC50 (PC-9 cells [7]; Homo sapiens, PC-9, 48 h, read-out: IC50 (μM) PC-9) of 6.36 ± 0.11 µM, an inhibition at 4 µM (PC-9 cells [7]; Homo sapiens, PC-9, read-out: Inhibitory efficacy, PC-9, 4uM, single repeats (Repeat 1-3), given as fraction) of 21.3% and an inhibition at 8 µM (PC-9 cells [7]; Homo sapiens, PC-9, read-out: Inhibitory efficacy, PC-9, 8uM, single repeats (Repeat 1-3), given as fraction) of 70.1%. The inhibition at 16 µM (PC-9 cells [7]; Homo sapiens, PC-9, read-out: Inhibitory efficacy, PC-9, 16uM, single repeats (Repeat 1-3), given as fraction) was 88.6%, the Inhibitory efficacy (PC-9 cells [7]; PC-9, 4uM, 4 µM) was 0.1587 and 0.2347 and the Inhibitory efficacy (PC-9 cells [7]; PC-9, 8uM, 8 µM) was 0.6968 and 0.6771. For the same compound, the Inhibitory efficacy (PC-9 cells [7]; PC-9, 16uM, 16 µM) was 0.8795 and 0.8884.
